The values that follow come from patent US9533987B2, “Heterocyclic derivates” (KALVISTA PHARMACEUTICALS LIMITED, priority 2013, dated 2017).

One data set concerns the target Human KLK1 (Homo sapiens (Human), UniProt P06870). Nature of the data set: Determination of the IC50 for KLK1 (fluorogenic substrate H-DVal-Leu-Arg-AFC). Conditions: 37° C. The data set is classed as biochemical. How it is done: Determination of the IC50 for KLK1
Human KLK1 (Callbiochem) was incubated at 37° C. with the fluorogenic substrate H-DVal-Leu-Arg-AFC and various concentrations of the test compound. Residual enzyme activity (initial rate of reaction) was determined by measuring the change in […] at 410 nm and the IC50 value for the test compound was determined.

The target in a further data set is Human plasma kallikrein (Homo sapiens (Human), UniProt P03952). Nature of the data set: Determination of the IC50 for plasma kallikrein (fluorogenic substrate H-DPro-Phe-Arg-AFC). The data set is classed as biochemical. The following applies: 37° C., read-out: IC50 (human PKaI). How it is done: Determination of the IC50 for Plasma Kallikrein
Human plasma kallikrein (Protogen) was incubated at 37° C. with the fluorogenic substrate H-DPro-Phe-Arg-AFC and various concentrations of the test compound. Residual enzyme activity (initial rate of reaction) was determined by measuring the change in […] at 410 nm and the IC50 value for the test compound was determined.

Data set [1] is described as follows: Pharmacokinetics following a single oral dose in male Sprague-Dawley rats. The data set is classed as in vivo. The following applies: rat, plasma. How it is done:
Pharmacokinetic studies of the compounds in Table 16 were performed to assess the pharmacokinetics following a single oral dose in male Sprague-Dawley rats. […] Following dosing, blood samples were collected over a period of 24 hours. Sample times were 5, 15 and 30 minutes then 1, 2, 4, 6, 8, 12 and 24 hours. Following collection, blood samples were centrifuged and the plasma fraction analysed for concentration of test compound by LCMS.

The target of another data set is Factor XIIa (Homo sapiens (Human), UniProt P00748). Nature of the data set: Determination of enzyme selectivity, Factor XIIa. The following applies: substrate at Km concentration. In kind it is biochemical. Here is the method: Determination of Enzyme Selectivity
Human serine protease enzymes plasmin, thrombin, trypsin, Factor Xa and Factor XIIa were assayed for enzymatic activity using an appropriate fluorogenic substrate. Protease activity was measured by monitoring the accumulation of liberated fluorescence from the substrate over 5 minutes. The linear rate of fluorescence increase per minute was expressed as percentage (%) activity. The Km for the cleavage of each substrate was determined by standard transformation of the Michaelis-Menten equation.

Chain of Human KLK1 (P06870 25-262): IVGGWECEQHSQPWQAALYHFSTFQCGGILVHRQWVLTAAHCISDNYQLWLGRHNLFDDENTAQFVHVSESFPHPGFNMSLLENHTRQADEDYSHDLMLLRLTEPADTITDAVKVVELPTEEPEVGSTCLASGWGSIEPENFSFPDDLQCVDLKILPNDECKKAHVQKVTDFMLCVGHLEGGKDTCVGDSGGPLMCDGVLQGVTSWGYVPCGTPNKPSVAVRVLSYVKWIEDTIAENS
Chain of Factor XIIa (P00748 373-615): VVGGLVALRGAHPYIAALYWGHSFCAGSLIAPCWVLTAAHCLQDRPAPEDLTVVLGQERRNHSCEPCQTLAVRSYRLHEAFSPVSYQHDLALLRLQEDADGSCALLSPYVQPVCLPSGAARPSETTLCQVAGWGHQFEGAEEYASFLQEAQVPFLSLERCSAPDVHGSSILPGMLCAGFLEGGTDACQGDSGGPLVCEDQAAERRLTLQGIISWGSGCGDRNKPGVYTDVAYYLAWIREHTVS
Chain of Human plasma kallikrein (P03952 391-638): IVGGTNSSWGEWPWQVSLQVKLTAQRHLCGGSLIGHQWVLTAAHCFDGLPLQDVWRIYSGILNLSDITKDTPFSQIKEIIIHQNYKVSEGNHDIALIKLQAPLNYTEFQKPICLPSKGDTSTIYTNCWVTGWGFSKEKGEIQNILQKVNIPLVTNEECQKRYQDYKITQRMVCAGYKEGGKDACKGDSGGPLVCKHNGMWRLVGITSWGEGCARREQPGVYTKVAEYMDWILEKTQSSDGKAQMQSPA
Chain of Human plasma kallikrein (P03952 20-390 partner): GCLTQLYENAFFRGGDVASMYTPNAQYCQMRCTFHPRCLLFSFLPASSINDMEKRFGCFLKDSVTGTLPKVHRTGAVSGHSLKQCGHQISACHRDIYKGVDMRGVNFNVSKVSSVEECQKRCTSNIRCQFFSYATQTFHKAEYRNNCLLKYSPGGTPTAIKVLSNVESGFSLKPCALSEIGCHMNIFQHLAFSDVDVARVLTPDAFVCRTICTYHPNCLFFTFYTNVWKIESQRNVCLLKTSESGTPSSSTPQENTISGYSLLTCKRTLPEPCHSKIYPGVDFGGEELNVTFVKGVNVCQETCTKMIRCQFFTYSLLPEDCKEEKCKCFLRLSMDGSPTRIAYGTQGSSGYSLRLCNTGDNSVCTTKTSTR

Regarding `O=C(NCc1cccc2[nH]ncc12)c1cn(Cc2ccc(Cn3ccccc3=O)cc2)nc1C(F)(F)F` [Example 126, 1-[4-(2-Oxo-2H-pyridin-1-ylmethyl)-benzyl]-3-trifluoromethyl-1H-pyrazole-4-carboxylic acid (1H-indazol-4-ylmethyl)-amide], the IC50 (commonly the midpoint of a concentration-inhibition curve) against Human KLK1 is greater than 10 µM; at Human plasma kallikrein, 22.9 nM; on Factor XIIa, greater than 10000 nM. In data set [1] (single po dose 10 mg/kg), the Cmax (in general, the highest concentration seen after dosing) turned out to be 56 ng/mL. Also, in data set [1] (single po dose 10 mg/kg), the Tmax (commonly the time at which the peak concentration occurs) was 30 min.

As to `Cc1cnn(Cc2ccc(Cn3cc(C(=O)NCc4ccc5c(N)nccc5c4)c(C)n3)cc2)c1` [Example 11, 3-Methyl-1-[4-(4-methyl-pyrazol-1-ylmethyl)-benzyl]-1H-pyrazole-4-carboxylic acid (1-amino-isoquinolin-6-ylmethyl)-amide], the IC50 was 8.86 µM at Human KLK1, 1.89 nM at Human plasma kallikrein and greater than 10000 nM against Factor XIIa. In addition, the highest level in data set [1] (single po dose 10 mg/kg) (Cmax) was 134 ng/mL. Also, the Tmax in data set [1] (single po dose 10 mg/kg) is 23 min.

With `Cc1cnn(Cc2ccc(Cn3cc(C(=O)NCc4ccc5c(N)nccc5c4)c(C4CC4)n3)cc2)c1` [Example 12, 3-Cyclopropyl-1-[4-(4-methyl-pyrazol-1-ylmethyl)-benzyl]-1H-pyrazole-4-carboxylic acid (1-amino-isoquinolin-6-ylmethyl)-amide], the IC50 on Human KLK1 was 6.06 µM; at Human plasma kallikrein, 2.58 nM; against Factor XIIa it was greater than 10000 nM. In data set [1] (single po dose 10 mg/kg), the Cmax turned out to be 155 ng/mL. The Tmax in data set [1] (single po dose 10 mg/kg) is 30 min.

Regarding `Nc1nccc2cc(CNC(=O)c3cn(Cc4ccc(N5CCCC5)nc4)nc3C(F)(F)F)ccc12` [Example 24, 1-(6-Pyrrolidin-1-yl-pyridin-3-ylmethyl)-3-trifluoromethyl-1H-pyrazole-4-carboxylic acid (1-amino-isoquinolin-6-ylmethyl)-amide], the IC50 was greater than 4 µM against Human KLK1, 9.66 nM at Human plasma kallikrein and greater than 1000 nM at Factor XIIa. Also, the Cmax in data set [1] (single po dose 4 mg/kg) turned out to be 97 ng/mL. In addition, the Tmax in data set [1] (single po dose 4 mg/kg) is 420 min.

`C[C@@H]1CCCN1c1ccc(Cn2cc(C(=O)NCc3ccc4c(N)nccc4c3)c(C(F)(F)F)n2)cn1` [Example 63, 1-[6-((R)-2-Methyl-pyrrolidin-1-yl)-pyridin-3-ylmethyl]-3-trifluoromethyl-1H-pyrazole-4-carboxylic acid (1-amino-isoquinolin-6-ylmethyl)-amide]: the values for the half-maximal inhibitory concentration (IC50) against Human KLK1, on Human plasma kallikrein and at Factor XIIa were 5.7 µM, 12.3 nM and greater than 10000 nM, respectively.

As for `Cc1cnn(Cc2ccc(Cn3cc(C(=O)NCc4cc5cc[nH]c5nc4C)cn3)cc2)c1` [Example 22, 1-[4-(4-Methyl-pyrazol-1-ylmethyl)-benzyl]-1H-pyrazole-4-carboxylic acid (6-methyl-1H-pyrrolo[2,3-b]pyridin-5-ylmethyl)-amide], the IC50 was greater than 10 µM on Human KLK1, 132 nM on Human plasma kallikrein and greater than 10000 nM against Factor XIIa.

Turning to `Cc1nc(C)c(N(C)Cc2ccc(Cn3cc(C(=O)NCc4cnc5[nH]ccc5c4)cn3)cc2)s1` [Example 105, 1-(4-{[(2,4-Dimethyl-thiazol-5-yl)-methyl-amino]-methyl}-benzyl)-1H-pyrazole-4-carboxylic acid (1H-pyrrolo[2,3-b]pyridin-5-ylmethyl)-amide], the concentration for half-maximal inhibition (IC50) against Human KLK1 was greater than 40 µM; on Human plasma kallikrein, 17000 nM; against Factor XIIa it was greater than 40000 nM.

Consider “1-[4-(4-Methyl-pyrazol-1-ylmethyl)-benzyl]-3-trifluoromethyl-1H-pyrazole-4-carboxylic acid (4,6-dimethyl-1H-pyrrolo[2,3-b]pyridin-5-ylmethyl)-amide [Example 119]”, for which the values for the IC50 at Human KLK1, at Human plasma kallikrein and on Factor XIIa were greater than 4 µM, 86.6 nM and greater than 4000 nM, respectively.

Turning to `Cc1cnn(Cc2ccc(Cc3nc(C)c(C(=O)NCc4ccc5c(N)nccc5c4)s3)cc2)c1` [Example 18, 4-Methyl-2-[4-(4-methyl-pyrazol-1-ylmethyl)-benzyl]-thiazole-5-carboxylic acid (1-amino-isoquinolin-6-ylmethyl)-amide], the IC50 was greater than 10 µM at Human KLK1, 32 nM at Human plasma kallikrein and greater than 10000 nM at Factor XIIa.

With `Nc1nccc2cc(CNC(=O)c3cn(Cc4ccc(N5CCC(F)(F)C5)nc4)nc3C(F)(F)F)ccc12` [Example 57, 1-[6-(3,3-Difluoro-pyrrolidin-1-yl)-pyridin-3-ylmethyl]-3-trifluoromethyl-1H-pyrazole-4-carboxylic acid (1-amino-isoquinolin-6-ylmethyl)-amide], the IC50 against Human KLK1 was greater than 10 µM; at Human plasma kallikrein it was 14.9 nM; against Factor XIIa, greater than 10000 nM.

Consider `C[C@H]1CCN(c2cc(Cn3cc(C(=O)NCc4ccc5c(N)nccc5c4)c(C(F)(F)F)n3)ccn2)C1` [Example 68, 1-[2-((S)-3-Methyl-pyrrolidin-1-yl)-pyridin-4-ylmethyl]-3-trifluoromethyl-1H-pyrazole-4-carboxylic acid (1-amino-isoquinolin-6-ylmethyl)-amide], for which the IC50 is 9.76 µM against Human KLK1, 59 nM on Human plasma kallikrein and greater than 10000 nM against Factor XIIa.

On to `Cc1cnn(Cc2ccc(Cn3cc(C(=O)NCc4ccc5c(N)nccc5c4)nn3)cc2)c1` [Example 33, 1-[4-(4-Methyl-pyrazol-1-ylmethyl)-benzyl]-1H-[1,2,3]triazole-4-carboxylic acid (1-amino-isoquinolin-6-ylmethyl)-amide], for which the IC50 against Human KLK1 is greater than 10 µM; on Human plasma kallikrein, 2.8 nM; against Factor XIIa, greater than 10000 nM.

For `O=C(NCc1cnc2[nH]ccc2c1)c1cnn(Cc2cccc(Oc3ncccc3F)c2)c1` [Example 106, 1-[3-(3-Fluoro-pyridin-2-yloxy)-benzyl]-1H-pyrazole-4-carboxylic acid (1H-pyrrolo[2,3-b]pyridin-5-ylmethyl)-amide], the figures for the IC50 against Human KLK1, on Human plasma kallikrein and against Factor XIIa were greater than 40 µM, 12000 nM and greater than 40000 nM, respectively.

Regarding `Nc1nccc2cc(CNC(=O)c3cn(Cc4ccc(N5CC[C@@H](F)C5)nc4)nc3C(F)(F)F)ccc12` [Example 61, 1-[6-((R)-3-Fluoro-pyrrolidin-1-yl)-pyridin-3-ylmethyl]-3-trifluoromethyl-1H-pyrazole-4-carboxylic acid (1-amino-isoquinolin-6-ylmethyl)-amide], the IC50 was 7.66 µM against Human KLK1, 18.1 nM at Human plasma kallikrein and greater than 10000 nM on Factor XIIa.

As to `O=C(NCc1cnc2[nH]ccc2c1)c1cnn(Cc2ccc(Oc3ccccn3)cc2)c1` [Example 107, 1-[4-(Pyridin-2-yloxy)-benzyl]-1H-pyrazole-4-carboxylic acid (1H-pyrrolo[2,3-b]pyridin-5-ylmethyl)-amide], the IC50 against Human KLK1 is 38.1 µM; on Human plasma kallikrein, 2300 nM; on Factor XIIa it was greater than 40000 nM.

Regarding `Nc1nccc2cc(CNC(=O)c3cn(Cc4ccnc(N5CCCC5)c4)nc3C(F)(F)F)ccc12` [Example 54, 1-(2-Pyrrolidin-1-yl-pyridin-4-ylmethyl)-3-trifluoromethyl-1H-pyrazole-4-carboxylic acid (1-amino-isoquinolin-6-ylmethyl)-amide], the IC50 against Human KLK1 was 18.2 µM; on Human plasma kallikrein, 46.7 nM; on Factor XIIa, greater than 4000 nM.

As to `Nc1nccc2cc(CNC(=O)c3cnn(CCc4ccc5c(c4)OCCO5)c3)ccc12` [Example 45, 1-[2-(2,3-Dihydro-benzo[1,4]dioxin-6-yl)-ethyl]-1H-pyrazole-4-carboxylic acid (1-amino-isoquinolin-6-ylmethyl)-amide], the IC50 against Human KLK1 was 18.6 µM; at Human plasma kallikrein it was 3060 nM; at Factor XIIa, greater than 40000 nM.

Take `Nc1nccc2cc(CNC(=O)c3cnn(Cc4ccc(Oc5ccccn5)cc4)c3)ccc12` [Example 49, 1-[4-(Pyridin-2-yloxy)-benzyl]-1H-pyrazole-4-carboxylic acid (1-amino-isoquinolin-6-ylmethyl)-amide]: the IC50 was 8.09 µM on Human KLK1, 186 nM on Human plasma kallikrein and greater than 40000 nM against Factor XIIa.

For the compound `Cc1cnn(Cc2ccc(Cn3cc(C(=O)NCc4ccc5c(N)nccc5c4)c(-c4ccccc4)n3)cc2)c1` [Example 35, 1-[4-(4-Methyl-pyrazol-1-ylmethyl)-benzyl]-3-phenyl-1H-pyrazole-4-carboxylic acid (1-amino-isoquinolin-6-ylmethyl)-amide], the IC50 at Human KLK1 is greater than 10 µM; at Human plasma kallikrein, 3.68 nM; at Factor XIIa it was greater than 10000 nM.

For `COCc1nn(Cc2ccc(Cn3cc(C)cn3)cc2)cc1C(=O)NCc1ccc2c(N)nccc2c1` [Example 38, 3-Methoxymethyl-1-[4-(4-methyl-pyrazol-1-ylmethyl)-benzyl]-1H-pyrazole-4-carboxylic acid (1-amino-isoquinolin-6-ylmethyl)-amide], the figures for the IC50 at Human KLK1, on Human plasma kallikrein and against Factor XIIa were 7.84 µM, 1.27 nM and greater than 10000 nM, respectively.
